In one experiment the test system is P388. Briefly: In vivo cytotoxicity against mouse P388 cells assessed as life extension at 0.1 ug/kg. Format: functional, organism-based.
Another experiment has as its system Ehrlich. Nature of the experiment: In vivo cytotoxicity against mouse EAC cells. Format: functional, organism-based.

As for `C=C(/C=C\C[C@@H](O)[C@@H](O)[C@H](O)C/C=C/C=C\[C@@H](O)C[C@@H]1O[C@H](C[C@@H](O)[C@H](O)C[C@H]2O[C@H]([C@H](O)[C@H](O)CC[C@H](O)/C=C/[C@H](C)[C@@H](O)C[C@]3(O)O[C@H](C[C@@H](O)CCCCCCC[C@@]45C[C@@H](C)C[C@@](C)(O4)[C@@H](C[C@@H](C)CCCCC[C@@H](O)[C@H](O)[C@H](O)[C@@H](O)[C@H](O)[C@H]4O[C@H](C[C@H](O)[C@H](O)/C(C)=C/[C@H](O)C[C@@H](C)[C@H](O)C(=O)N/C=C/C(=O)NCCCO)[C@H](O)[C@@H](O)[C@@H]4O)O5)[C@H](O)[C@@H](O)[C@H]3O)C[C@@H](O)[C@@H]2O)[C@@H](O)[C@H](O)[C@H]1O)CC[C@H](O)[C@@H](O)[C@H](O)[C@H](C)C[C@H]1O[C@H](/C=C\[C@@H](O)CC[C@@H]2C[C@@H]3C[C@H](O2)[C@@H](CC[C@H]2O[C@H](CN)C[C@H]2O)O3)[C@@H](O)[C@H](O)[C@H]1O`, the figures for the Activity in the experiment on P388 and with Ehrlich were 32% and 0.34 µg/kg, respectively.

The values are drawn from ChEMBL document CHEMBL1151385, “Antineoplastic Agents 78. Isolation of Palystatins 1-3 From the Indian Ocean Palythoa liscia” (J Nat Prod, 1982).
